The subject of data set [1] is rats (baseline acoustic startle). Particulars: rat, in vivo, ip.
Description: A total of 72 male Sprague-Dawley rats (Charles River, Portage, Mich.) weighing 350-450 g were used. Animals were maintained on a 12:12 hour light-dark cycle (lights on at 0700) with food and water continuously available. All rats were housed in group cages of four rats each in a temperature-controlled (24° C.) animal colony.
Animals were trained and tested in 8×15×15 cm Plexiglas® and wire-mesh cages. Each cage floor consisted of four 6.0 mm diameter stainless-steel bars spaced 18 mm apart. Each cage was suspended between compression springs within a steel frame and located within a custom-designed 90×70×70 cm ventilated sound-attenuating chamber. Background noise (60 dB wide-band) was provided by a General Radio Type 1390-B noise generator (Concord, Mass.) and delivered through high-frequency speakers (Radio Shack Supertweeter; Tandy, Fort Worth, Tex.) located 5 cm in front of each cage. Sound level measurements (sound pressure level) were made with a Bruel & Kjaer (Marlborough, Mass.) model 2235 sound-level meter (A scale; random input) with the microphone (Type 4176) located 7 cm from the center of the speaker (approximating the distance of the rat's ear from the speaker). […]
The subject of another data set is Fos protein expression. The experiment in a line: Brain gene expression measured by Fos protein expression. It is filed as in vivo, rat.
For data set [2], the system named is rats (fear-potentiated startle). The experiment in a line: Fear-potentiated startle paradigm in rats. It is filed as in vivo, rat. Here is the method:
The conditioned stimulus (CS) was a 3.7 second light (80 lux) produced by an 8 W fluorescent bulb (100 msecond rise time) located 10 cm behind each cage. Luminosity was measured using a VWR light meter (Atlanta, Ga.). The US was a 0.5 second shock, delivered to the floorbars and produced by a shock generator (SGS-004; LeHigh Valley, Beltsville, Md.). Shock intensities (measured as in Cassella et al., Physiol Behav 36:1187-91, 1986) were 0.4 mA. The presentation and sequencing of all stimuli were under the control of the Macintosh G3 computer using custom-designed software (The Experimenter; Glassbeads Inc., Newton, Conn.).
The experiment was run in four replications.
Fear conditioning. On each of the next 2 days, rats were returned to the test chambers and 5 minutes later given the first of 10 light-footshock pairings. The 0.4 mA 0.5 second shock was delivered during the last 0.5 second of the 3.7 second light. The average intertrial interval (ITI) was 4 minutes (range, 3-5 minutes).

The test system of data set [3] is rats (spatial learning and memory).
Excerpt: The M swim maze was developed to test spatial learning and memory (e.g., functional memory). The animal has no visual or spatial cues in the pool and must rely on extra-maze cues (e.g., light setup outside the pool that can be seen by the swimming animal). Through a series of trials a rat develops “place learning” or knowledge about the position of the escape platform based upon the extra-maze cues. The platform can be moved to a different arm of the M configuration each day, combining spatial memory with working memory. This paradigm involves extinction of the prior memory and resolution of a new spatial problem.
Test Animals. A total of 40 male rats were used.
Behavioral Procedures and Data Analysis. Rats (10/group) were treated by tail vein injection with vehicle, 0.4 μg/kg/day, 4.0 μg/kg/day, and 40 μg/kg/day secretin on post natal day 25 through postnatal day 70 (45 days). Learning and memory was evaluated in a water M-maze. The evaluation consisted of 10 trials/day for each animal on 4 successive days to assess short-term memory. The goal was to escape from the maze via a platform located on the lighted arm of an M-shaped maze. After placement of the animal in the central arm of the M-shaped maze, the goal side was varied for each animal at each trial according to a predetermined computer generated sequence. The same animals were also tested 5 days after the initial testing to assess long-term memory. On that day each animal were allowed 10 trials in the maze and time to escape was measured. Significance was calculated versus the control group value for the same day of testing using a T-test.

As to secretin, the “effect of higher doses on baseline startle” value in data set [1] is given as “tended to suppress baseline startle”. Besides, the “dose giving peak change in Fos protein expression” value in the data set on Fos protein expression (i.p. or i.v.) was determined as 40 µg/kg. In addition, the “minimum dose to detect significant changes in brain gene expression (Fos protein)” value in the data set on Fos protein expression (i.v. or i.p.) was 4 µg/kg. Besides, the “minimum dose possessing anxiolytic properties in fear-potentiated startle paradigm” value in data set [2] (i.p.) came to 3 µg/kg. The “effect on expression of fear-potentiated startle” value in data set [2] (i.p. 1-100 μg/kg immediately prior to testing) is “dose dependently impaired expression of fear-potentiated startle”. Also, the “dose giving greatest impairment of fear-potentiated startle” value in data set [2] (i.p. immediately prior to testing) was 10 µg/kg. The “ability to learn and remember a spatial associative memory task” value in data set [3] (rat, in vivo, iv) was “does not impair”. The “learning performance in water M-maze relative to controls” value in data set [3] (rats, 0.4 or 4.0 μg/kg/day i.v., after 4 training days, maintained after 5 day rest) is on record as “improved in learning performance”. The same substance had a minimum dose that improves functional memory in M swim maze in data set [3] (rats, i.v.) of 0.4 µg/kg.

(Values after patent US20050002922A1, “Use of secretin and secretin analogs to treat affective disorders” (priority 2003, published 2005).)
